Experimental data from US9079936B2, “Derivatives of APF and methods of use” (University of Maryland, Baltimore, priority 2007, dated 2015).
Entries after “also recorded” stand apart in the source; their conditions may differ.

Key:
[1] = test system: normal human bladder epithelial cells; experiment: 3H-thymidine incorporation into explanted normal human bladder epithelial cells; type: cell-based
Experimental: Cell proliferation was measured by ^3H-thymidine incorporation into explanted normal human bladder epithelial cells, as previously described (Keay et al., 2001; Keay et al., 2000; Keay et al., 2003a; Keay et al., 2003b; Keay et al., 1996). Briefly, purified native or synthetic APF (or the appropriate mock preparation) was diluted in serum-free MEM (containing only glutamine and antibiotics/antimycotics) and applied to the cells; cell controls received serum-free MEM alone. Cells were then incubated at 37° C. in a 5% CO2 atmosphere for 48 hours. The cells were then labeled with 1 μCi/well ^3H-thymidine for 4 hours, trypsinized, insoluble cell contents harvested and methanol-fixed onto glass fiber filter paper, and the amount of radioactivity incorporated determined. […]
The present example concerns exemplary comprehensive structure-activity relationship (SAR) studies on the peptide portion of antiproliferative factor (APF). […] Antiproliferative activity of each derivative was determined by inhibition of ^3H-thymidine incorporation in primary normal human bladder epithelial cells.
^3H-Thymidine Incorporation. […] The cell contents harvested and methanol-fixed onto glass fiber filter paper, and the amount of radioactivity incorporated determined. […]

[2] = test system: APF activity in normal bladder epithelial cells; experiment: Inhibition of APF antiproliferative activity in APF-treated normal bladder cells (3H-thymidine incorporation); type: cell-based, human; conditions: pretreatment with derivative, then active synthetic APF (as-APF), IC/PBS and/or normal bladder cells
Experimental: (§1) IC/PBS cells were incubated with varying concentrations of GalGalNAc-TV(D-proline)AAVVVA (SEQ ID NO:11), wherein such glycosylated peptide is SEQ ID NO:30). Cell proliferation was determined by ^3H-thymidine incorporation; gene expression by quantitative RT-PCR; specific protein expression by Western blot analysis; tight junction formation by confocal immunofluorescence microscopy; and paracellular permeability by ^14C-mannitol and ^3H-inulin flux between confluent cells on Transwell plates. Significance of the difference in mean values between groups was determined by an analysis of variance for each assay.
as §1, with “a derivative shown to inhibit APF activity in normal bladder cells—GalGalNAc-TV-(D-proline)-AAVVVA” for “GalGalNAc-TV(D-proline)AAVVVA”, “NO: 11),” for “NO:11),”, “RT-PCR;” for “RT-PCR; specific protein expression by Western blot analysis;”, “^14H-inulin” for “^3H-inulin”
(§2) Cell proliferation was measured by ^3H-thymidine incorporation into explanted normal human bladder epithelial cells, as previously described (Keay et al., 2000; Keay et al., 2001; Keay et al., 2004; Keay et al., 2003; Saitoh et al., 2001). Significant inhibition of ^3H-thymidine incorporation was defined as a mean decrease in counts per minute of greater than 2 standard deviations from the mean of control cells for each plate.

[3] = test system: bladder epithelial cells from IC/PBS patients; experiment: IC/PBS cell proliferation (3H-thymidine incorporation); type: cell-based, human; conditions: for effect on IC cell proliferation: 0.25 uM, 9, 16, 23 and 30 day treatment (Example 12)
Experimental: as §1
Study of the effect of APF proline on IC cell proliferation (as measured by thymidine incorporation) following 9, 16, 23, and 30 day treatment with 0.25 uM of the agent.
as §1, with “a derivative shown to inhibit APF activity in normal bladder cells—GalGalNAc-TV-(D-proline)-AAVVVA” for “GalGalNAc-TV(D-proline)AAVVVA”, “NO: 11),” for “NO:11),”, “RT-PCR;” for “RT-PCR; specific protein expression by Western blot analysis;”, “^14H-inulin” for “^3H-inulin”
IC/PBS cells produce APF and as a result have a profound decrease in cell proliferation. […] Cells were treated with 1 nM D-proline APF twice weekly, and thymidine incorporation was determined at 9, 16, 23 and 30 days.
as §2

[4] = test system: tight junction protein gene expression in IC/PBS cells; experiment: qRT-PCR for tight junction gene expression; type: cell-based, human; conditions: 16 and 30 day treatment, relative to β-actin
Experimental: Total RNA was extracted from IC/PBS and normal control epithelial cell explants using the RNEasy Plus Mini Kit (Qiagen) according to the manufacturer's protocol. Quantitative real time RT-PCR for tight junction gene expression was performed using Quantitect Primers (Qiagen), SYBR Green RT-PCR kit reagents (Qiagen), and a Roche 480 Light-Cycler. Samples were tested in triplicate runs, and specific mRNA levels quantified and compared to mRNA levels for β-actin using LightCycler 480 real-time PCR analysis software (version 1.5).
(§3) For the permeability assay, the percentage of total counts in the basal medium was determined in four experiments (using different IC/PBS cell donors), and expressed as mean±standard deviation. Crossover point analysis was performed for qRT-PCR data, and expression of each gene was quantified relative to β-actin; this value was expressed as mean±standard error of the mean for duplicate runs performed on two separate occasions. ^3H-thymidine incorporation was determined in triplicate on two separate occasions, and the CPM expressed as mean±standard deviation.

[5] = test system: tight junction proteins in IC/PBS cells; experiment: Immunofluorescence confocal microscopy of tight junction proteins; type: cell-based, human; conditions: IC/PBS cell explants treated for 9 days
Experimental: For immunofluorescence, cells were fixed using ethanol/acetone (1:1) for 15 minutes at room temperature, washed 3 times with PBS and incubated with fluorescein isothiocyanate (FITC) labeled mouse monoclonal anti-ZO-1 (5 μg/ml); or unlabeled mouse monoclonal anti-occludin (5 μg/ml) or anti-claudin 4 (3 μg/ml); or unlabeled rabbit polyclonal anti-claudin 1 (3 μg/ml), anti-claudin 8 (8 μg/ml), or anti-claudin 12 (5 μg/ml) antibodies (all from Zymed, South San Francisco, Calif.) diluted in PBS for 2 hours at 37 C. Cells incubated with unlabeled mouse monoclonal primary antibodies were then washed 3 times with PBS and further incubated with FITC-labeled secondary goat anti-mouse IgG antibody (Zymed) diluted in PBS, while cells incubated with unlabeled rabbit polyclonal primary antibodies were washed and further incubated for 2 hours at 37 C with goat anti-rabbit IgG (Zymed) diluted in PBS. Following an additional 5 washes with PBS, the cells were examined using an LSM510 confocal laser scanning microscope (Carl Zeiss, Oberkochen, Germany). Negative controls for the method included cells incubated without primary and secondary antibodies as well as cells incubated with secondary antibody alone.

IC/PBS cell monolayers = experiment: Paracellular permeability assay (14C-mannitol and 3H-inulin flux, Transwell); type: cell-based, human; conditions: IC/PBS cells, 16 or 30 days treatment
Experimental: Flux assays were performed using 12-mm Transwell culture plates (Corning Incorporated, Corning, N.Y.), as previously described (Keay et al., 2000). Cells were plated at 4×10^5 cells/cm^2 on the insert and grown in DMEM-F12 medium containing 10% heat-inactivated FBS, 1% antibiotic solution, 1% L-glutamine, 0.25 units/ml insulin (all from Sigma, St. Louis, Mo.), and 5 ng/ml hEGF (R & D Systems, Minneapolis, Minn.) to establish tight monolayers. On day 2, the medium was changed to MEM (GIBCO/Invitrogen) containing 1% antibiotic/antimycotic solution and 1% L-glutamine (Sigma).
Two different membrane impermeable molecules, [^14C]-mannitol (molecular weight: 184 Daltons) and [3H]-inulin (molecular weight: 5,200 Daltons), served as paracellular tracers. At the beginning of the flux assay, both sides of the bathing wells of Transwell filters were replaced with fresh medium containing either 5 mM unlabeled mannitol or 0.5 mM unlabeled inulin. Each tracer was added at a final concentration of 3.6 nM for [^14C]-mannitol and 0.36 nM for [^3H]-inulin to the apical bathing wells. The basal bathing well contained the same medium as the apical compartment but without tracers. Flux assays were performed at 37° C.; basal medium was collected at 0.5-6 hrs after addition of [^14C]-mannitol or [^3H]-inulin, and the amount of radioactivity determined using a Beckman LS 5000 scintillation counter. Results were expressed as percentage of total counts for each tracer.
as §3

[6] = listed as GalGalNAc-TV(D-proline)AAVVVA
[7] = listed as GalGalNAc-TV-(D-proline)-AAVVVA

Question: With “GalGalNAc-TV(D-proline)AAVVVA [D-proline APF]” as the substance, how does the antiproliferative activity ([1]; 3H-thymidine incorporation, normal bladder epithelial cells) read?
Answer: Its antiproliferative activity is “did not have any intrinsic antiproliferative activity”.

Question: What about the “antiproliferative activity normalized to as-APF” value ([1]; inactive = no significant activity at <25 μM (cut-off limit of the assay)) of the same substance?
Answer: The value was “inactive”.

Question: What about the “blocking of APF antiproliferative activity” value (shortened to “blocking”) [2] of the same substance?
Answer: The value was “inhibited this activity in nanomolar concentrations in a dose-dependent manner”.

Question: What about the “blocking” value [2, 6] of the same substance?
Answer: The value was “blocked APF activity”.

Question: And the “blocking” value [2, 7]?
Answer: The value was “blocked APF antiproliferative activity; also recorded: blocks APF's inhibitory effects on cell proliferation”.

Question: And the “stimulation of IC/PBS cell proliferation” value ([3]; 1 nM twice weekly, thymidine incorporation at 9, 16, 23 and 30 days (Example 14))?
Answer: The value was “stimulated IC/PBS cell proliferation by Day 16”.

Question: And the “effect on IC cell proliferation” value [3]?
Answer: Its value is “significantly stimulated at both time points”.

Question: And the “effect on IC cell proliferation” value ([3]; listed as APF proline)?
Answer: Its value is “Optimal stimulation of IC cell proliferation was observed up to the level of normal bladder cell proliferation”.

Question: What about the “tight junction protein mRNA expression” value [4] of the same substance?
Answer: The value was “stimulation of tight junction protein expression; also recorded: stimulate mRNA expression for ZO-1, occludin, and specific claudin (1, 4, 8, and 12)”.

Question: What about the “tight junction protein mRNA expression” value [4, 6] of the same substance?
Answer: The value was “significantly increase zonula occludens-1 and claudin 1, 4 and 8 expression”.

Question: And the “tight junction protein mRNA expression” value [4, 7]?
Answer: Its value is “significantly increased ZO-1, occludin, and claudin 1, 4, 8, and 12 expression”.

Question: And the “tight junction protein expression and localization” value [5]?
Answer: Its value is “also increased”.

Question: What about the “paracellular permeability (14C-mannitol, 3H-inulin)” value (from here on “paracellular permeability”) (IC/PBS cell monolayers) of the same substance?
Answer: The value was “normalized; also recorded: significantly decreased paracellular permeability of both tracer molecules”.

Question: And the “paracellular permeability” value (IC/PBS cell monolayers; [6])?
Answer: Its value is “decrease permeability of IC/PBS cells”.

Question: And the “paracellular permeability” value (IC/PBS cell monolayers; listed as GalGalNAc-TV-(D-Proline)-AAVVVA)?
Answer: Its value is “significantly decrease permeability of IC/PBS cells”.

Question: And the “paracellular permeability” value (IC/PBS cell monolayers; [7])?
Answer: Its value is “normalize IC/PBS cell paracellular permeability”.
